# Assay results as given in patent US20040038861A1, “Methods and compositions for normalizing lipid levels in mammalian tissues” (priority 2001, published 2004).
# Where no end group is shown, it is not given here.
# T1: murine ramp 1/C1ins− receptor (Mus musculus, UniProt Q60755+Q9WTJ5)
# T1 construct: expressed in transfected cells; host or cells: L6 myoblasts (ATCC), transient co-transfection of pcDNA3.1 plasmids
# T1 sequence (Q60755 42-496 isoform Q60755-2 limits assumed): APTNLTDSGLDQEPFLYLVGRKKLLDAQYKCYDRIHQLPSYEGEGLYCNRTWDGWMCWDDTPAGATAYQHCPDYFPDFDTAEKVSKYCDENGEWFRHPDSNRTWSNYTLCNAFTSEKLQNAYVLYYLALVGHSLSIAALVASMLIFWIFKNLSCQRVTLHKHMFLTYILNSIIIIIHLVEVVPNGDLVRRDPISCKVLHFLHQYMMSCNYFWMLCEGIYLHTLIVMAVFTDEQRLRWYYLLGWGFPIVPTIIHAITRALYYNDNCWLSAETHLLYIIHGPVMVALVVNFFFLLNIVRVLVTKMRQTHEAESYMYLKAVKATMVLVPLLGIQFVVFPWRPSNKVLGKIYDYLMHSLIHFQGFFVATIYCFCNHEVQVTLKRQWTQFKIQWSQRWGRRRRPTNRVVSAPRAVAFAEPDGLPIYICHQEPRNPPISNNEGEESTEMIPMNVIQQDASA
# T1 sequence (Q9WTJ5 27-148 partner): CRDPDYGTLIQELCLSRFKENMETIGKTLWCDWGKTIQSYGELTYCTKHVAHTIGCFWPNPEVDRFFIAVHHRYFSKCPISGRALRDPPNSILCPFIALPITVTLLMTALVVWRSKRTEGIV
# What was measured:
# [1] = test system: soleus muscle; assay: cAMP content of isolated soleus muscle from normal fed rats; type: cell-based, rat; conditions: for cAMP content in soleus muscles: 1 μM isoproterenol
# Procedure: (§1) Soleus muscle preparation. All experiments were performed according to protocols approved by the Institutional Animal Ethics Committee. 5-6 week-old male Wistar rats (160 g) were kept on a 12:12-h light/dark cycle, and fed and watered ad libitum. Animals were anaesthetised with 50 mg/kg Nembutal (pentobarbitone sodium), then sacrificed by cervical dislocation. Soleus muscles were dissected under oxygenated KHB (118 mM NaCl, 4.75 mM KCl, 1.2 mM MgSO4, 24.8 mM NaHCO3, 1.2 mM KH2PO4, 2.54 mM CaCl2, 10 mM glucose, pH 7.4) and teased into halves, then incubated as described below.
# (§2) For the measurement of cAMP in muscle, isolated soleus strips were incubated with stated concentrations of peptides, then lyophilized and deproteinized. Each strip was placed in 400 μl of 0.5 M HClO4 with 5 mM EDTA (phosphodiesterase inhibitor) and sonicated three times in 20 s bursts. Tubes were heated for 3-5 min in boiling water to coagulate protein, then centrifuged (12,000 g, 4° C., 2 min). Supernatant (300 μl) was taken and the pH adjusted to 7.0 with 75 μl of 2 M NH4OH. The samples were refrigerated (4° C., 2 h) to precipitate proteins, then centrifuged under the same conditions as above and 50 μl taken for cAMP measurement.
# [2] = test system: soleus muscle; assay: Masoprocol effect on CGRP1-evoked NEFA and triglyceride contents in soleus muscle from high fat-fed rats; type: cell-based, rat; conditions: 50 μM masoprocol with 100 nM or 1 pM CGRP1
# Text: Masoprocol, (nordihydroguaiaretic acid), is a lipoxygenase inhibitor, that has been identified as the active component of Creosote bush extracts. Oral administration of this compound lowers serum NEFA and triglyceride concentrations in rats with fructose-induced hypertriglyceridemia (Gowri et al. 2000, Am. J. Physiol. 279: E593-E600), and decrease blood glucose and triglyceride concentrations in a fat-fed/streptozotocin rat model (Reed et al. 1999, Diabetologia 42: 102-106).
# [3] = target: T1, murine ramp 1/C1ins− receptor; assay: Radioligand binding and displacement of [3H]amylin in L6 myoblasts co-transfected with murine ramp 1 and C1ins−; conditions: displacement of [3H]amylin, FIG. 9A
# [4] = test system: Wistar rats; assay: Tissue free fatty acid and triglyceride content following infusion in normal-fed rats; type: in vivo, rat
# Procedure: (§3) Surgery. Experiments were performed on male Wistar rats. Animals were randomly assigned to experimental groups as outlined below. Induction and maintenance of surgical anesthesia was by 3-5% halothane and 2L oxygen. An initial blood sample was taken from a tail artery for measurement of baseline levels of blood glucose and lactate, electrolyte, acid base and oxygen status and serum levels of free fatty acids, triglyceride and cholesterol. Immediately following this, the trachea was cannulated and the animal ventilated at 60-70 breaths.min-1 with air supplemented with O2. The respiratory rate and end-tidal pressure (10-15 cmH2O) were adjusted to maintain end-tidal CO2 at 35-40 mmHg. Body temperature was maintained at 37° C. throughout surgery and the experiment by a heating pad. The carotid artery and jugular vein were cannulated with a solid-state blood pressure transducer and a saline filled PE 50 catheter respectively. For the antagonist infusion studies, surgery was similar to above with the alteration being that both the carotid artery and jugular vein were cannulated with saline filled PE 50 catheters. Fluids (saline or hormone dissolved in saline) were delivered to the jugular vein with a Y-connector to join the two lines. The carotid artery line was connected to a blood pressure transducer. Blood samples were taken from this line at time zero (baseline reading), 30 minutes and every 20 minutes until the end of the experiment at 90 minutes.
# (§4) Infusion. […] Blood glucose measurements were taken from tail capillaries at 5-minute intervals throughout the duration of the experiment. At the end of the infusion a terminal blood sample was taken by cardiac puncture and analysed as per the basal sample and also for various metabolites and hormones. Serum and plasma samples were stored at −80° C. until future analysis. Animals were killed by cervical dislocation and harvested tissues (brain, liver, kidney, soleus muscle, extensor digitorum longus muscle, left ventricle, retroperitoneal and epididymal fat pads) snap frozen in liquid N2 and stored at −80° C. until future analysis. For the antagonist studies, the protocols was the same as above with the following changes: Infusion was a combination of antagonist, CGRP or saline.
# [5] = test system: soleus muscle; assay: cAMP content of isolated soleus muscle from high fat-fed rats; type: cell-based, rat
# Procedure: as §1, §2
# [6] = test system: Wistar rats; assay: Serum hormones and blood metabolites following acute CGRP infusion in anaesthetised normal-fed rats; type: in vivo, rat; conditions: end vs commencement of infusion
# Procedure: as §3
# as §4, with “analysis.” for “analysis. For the antagonist studies, the protocols was the same as above with the following changes: Infusion was a combination of antagonist, CGRP or saline.”
# [7] = test system: soleus muscle; assay: Lipid metabolites (free fatty acid, glycerol, triglyceride; enzymatic analysis) in isolated soleus muscle from normally fed rats; type: cell-based, rat; conditions: 1 h; for free fatty acid content in conjunction with 100 nM CGRP: 10 μM antagonist or maximally stimulating insulin (23.7 nM) + 100 nM CGRP, CGRP alone 334±52; for free fatty acid content in conjunction with 100 nM amylin: 10 μM antagonist or maximally stimulating insulin (23.7 nM) + 100 nM amylin, amylin alone 216±26
# [8] = test system: soleus muscle; assay: Glucose transport (2-deoxy-D-glucose uptake) in incubated soleus muscle strips; type: cell-based, rat
# Procedure: as §1
# Determination of rates of glucose transport in incubated soleus muscle strips. 4-5 muscle strips were added to each flask, which contained 10 ml DMEM. They were pre-incubated with hormones as indicated for 30 min at 30° C. in a shaking water bath, after which 5 μl of 2[^3H]DOG (0.5 μCi/ml) and 5 μl D[^14C(U)]sorbitol (0.05 μCi/ml) were added, then incubated for another 30 min; RIA grade BSA was added to 0.9% (w/v) to prevent non-specific binding of insulin to flasks. Following incubation, muscle strips were transferred to ice-cold KHB for 5-10 min to remove excess [^3H]DOG and [^14C]sorbitol. They were then blotted, frozen, tendons excised, then lyophilized for a further 48 h. Muscles were then weighed, transferred to scintillation vials and digested with 0.5 ml 1 M NaOH at 60° C. for 1 h. Scintillation fluid (4 ml) was added to each vial, and samples counted in a Beckman liquid scintillation spectrometer, preset to count ^14C and ^3H channels simultaneously. The amount of each isotope present in the samples was determined and used to calculate the extracellular space and the intracellular concentration of [^3H]DOG. The accumulation of intracellular [^3H]DOG, a measure of muscle glucose uptake, was calculated by subtracting the concentration of [^3H]DOG in the extracellular space from the corresponding total muscle [^3H]DOG]; extracellular [^3H]DOG was quantified by measuring the muscle concentration of [^14C]sorbitol.
# Data analysis. One way ANOVA, Dunnett's Multiple Comparisons Test, and unpaired Student's t-tests were used to calculate the statistical significance of differences, as appropriate. Dose-response curves were fitted to a sigmoidal dose-response algorithm, as follows: Y=minimum+(maximum−minimum)/([…] log ^(EC50^−X), for 2-DOG-uptake; and by a four parameter logistic model, Y=minimum+(maximum−minimum)/(1+10 log ^(EC50^−X)Hill-Coefficient) for total glycogen and [^14C]glucose incorporation. Calculations were performed using Prism v2.0 (GraphPad Software, San Diego, Calif.) to derive values for half-maximal effective concentration (EC50). Displacement curves derived for competition of bound radioligand with cold ligand in transfected cells were calculated according to a one site competition fit using Prism v2.0.
# [9] = target: metabolic amylin receptor
molecule,measurement,setting,value
CNCC(O)c1ccc(O)c(O)c1 (stereo not shown) [adrenaline],"cAMP content, agonist alone","[1]; normal fed, 100 nM CGRP or adrenaline, control 3.9±0.2",9.6 ± 0.7 pmol/mg
CC(C)NCC(O)c1ccc(O)c(O)c1 (stereo not shown) [isoproterenol],cAMP content in soleus muscles,[1]; experiment of FIG. 13A,3.5 ± 0.2 pmol/mg
same,cAMP content in soleus muscles,[1]; experiment of FIG. 13B,3.8 ± 0.2 pmol/mg
"CC(Cc1ccc(O)c(O)c1)C(C)Cc1ccc(O)c(O)c1 (stereo not shown) [masoprocol, nordihydroguaiaretic acid]",effect on CGRP1-evoked NEFA elevation,[2],completely reversed NEFA elevation
same,effect on CGRP1-evoked decrements in triglyceride content,[2],completely reversed decrements in soleus triglyceride content
Human adrenomedullin,competition with amylin for binding to co-transfected cells,[3],competed only very weakly
human CGRP1-(8-37) [CGRP-(8-37)],"FFA content, Heart","[4]; CGRP 100 pmol/kg/min 1 h, CGRP-(8-37) 10 nmol/kg/min 90 minutes, control 0.8 ± 0.2",0.9 ± 0.2 µmol/g
same,"FFA content, Liver","[4]; same infusions, control 0.1 ± 0.01",0.06 ± 0.04 µmol/g
same,"FFA content, Soleus Muscle","[4]; same infusions, control 0.2 ± 0.02",0.1 ± 0.02 µmol/g
same,"FFA content, Kidney","[4]; same infusions, control 0.8 ± 0.1",0.8 ± 0.1 µmol/g
same,"FFA content, Epi Adipose","[4]; same infusions, control 2.1 ± 0.5",2.2 ± 0.6 µmol/g
same,"triglyceride content, Kidney","[4]; same infusions, control 2.8 ± 0.5",2.5 ± 0.4 µmol/g
same,"triglyceride content, Heart","[4]; same infusions, control 2.9 ± 0.4",3.1 ± 0.4 µmol/g
same,"triglyceride content, Soleus Muscle","[4]; same infusions, control 3.7 ± 0.4",4.3 ± 0.4 µmol/g
same,"triglyceride content, Liver","[4]; same infusions, control 4.3 ± 0.3",5.8 ± 0.4 µmol/g
same,"triglyceride content, Epi Adipose","[4]; same infusions, control 5.1 ± 1.2",4.9 ± 1 µmol/g
same,cAMP content with 100 nM CGRP1 plus antagonist,[5]; 10-fold molar excess of antagonist,5.4 ± 0.4 pmol/mg
same,cAMP content with 1 pM CGRP plus antagonist,"[5]; 10-molar excess of antagonist, CGRP alone 8.6±0.4",4.7±0.5 pmol/mg
same,cAMP content with 100 nM CGRP plus antagonist,"[1]; normal fed, 10-fold molar excess of antagonist, CGRP alone 6.9±0.8",4.8 ± 0.2 pmol/mg
same,Change in [serum] Triglyceride,"[6]; CGRP 60 min, CGRP-(8-37) 90 min, control 0.2",0.9 mmol/L
same,Change in [serum] FFA,[6]; control −0.1,-0.3 mmol/L
same,Change in Lactate,"[6]; heparinised whole blood, control 0.3",0.02 mmol/L
same,free fatty acid concentration in conjunction with 1 pM CGRP,"[7]; 100 pM antagonist + 1 pM CGRP, CGRP alone 166±18",68±8 nmol/g
same,free fatty acid content in conjunction with 100 nM CGRP,[7],90 ± 7 nmol/g
same,free fatty acid content in conjunction with 100 nM amylin,[7],65 ± 8 nmol/g
"insulin: Soluble human insulin (Actrapid 100U, Novo Nordisk)",2-DOG-uptake,"[8]; hormone alone (amylin 10 nM; insulin 23.7 nM), basal 8.8 ± 0.9",28.4 ± 6.4 nmol/g dry-wt muscle/min
same,stimulation of glucose uptake,[8]; insulin 23.7 nM vs basal,3.2 fold
same,free fatty acid content in conjunction with 100 nM CGRP,[7],107 ± 17 nmol/g
same,free fatty acid content in conjunction with 100 nM amylin,[7],100 ± 11 nmol/g
same,intramuscular free fatty acid content,"[7]; soleus, normally fed rats, 100 nM amylin or CGRP-1, 4.4 μM norepinephrine, 23.7 nM insulin, control 78±21",67 ± 9 nmol/g
rat CGRP-1 (ligand; unit assumed),"EC50, total glycogen content, with insulin (23.7 nM)",[9],4.3 nM
rat amylin (from UniProt P12969) (ligand; unit assumed),"EC50, total glycogen content, with insulin (23.7 nM)",[9],8.1 nM
rat calcitonin (CGNLSTCMLGTYTQDLNKFHTFPQTSIGVGAP; ends and bridges not checked; cysteine pairing not given here) [calcitonin family peptide from Bachem],competition with amylin for binding to co-transfected cells,[3],competed only very weakly
salmon calcitonin (from UniProt P01263) (ligand; unit assumed),"EC50, total glycogen content, with insulin (23.7 nM)",[9],0.6 nM
"CSNLSTCVLGKLSQELHKLQTYPRTNTGSGTP (ligand, ends and bridges not checked; cysteine pairing not given here) [salmon calcitonin]","EC50, ^14C-glucose incorporation into glycogen, with insulin (23.7 nM)",[9],0.9 nM
same,"EC50, ^14C-glucose incorporation into glycogen, without insulin",[9],0.1 nM
same,"EC50, total glycogen content, without insulin",[9],1.7 nM
